1 molecule from patent US20150132342A1, “NOVEL IMMUNE ACTIVATORS: SUBSTITUTE 4-AMINOQUINAZOLINES” (The Regents of the University of California, priority 2013, published 2015) can be followed below.

Assay type in all cases: cell-based
One test concerns the target T1, TLR4/MD-2/CD14 (Homo sapiens, UniProt O00206+Q9Y6Y9).
T1 construct: host or cells: HEK293 (HEK Blue hTLR4)
Put plainly: hTLR4 HEK Blue reporter cells, NF-κB SEAP secretion (QuantiBlue OD630). On the procedure:
(§1) In vitro assays using TLR reporter cell lines. Murine or humanTLR4 HEK Blue™ cells (Invivogen, 2.5×10^4 cells per well of a 96 well plate), or NF-κB/SEAPorter™ HEK 293 cells (Imgenex, San Diego, Calif.) for human TLR2, TLR3, TLR5, TLR7, TLR8, or TLR9 (5×10^4 cells per well of 96 well plate) were incubated with graded doses of the test compound. The culture supernatants were harvested after a 20-24 h incubation period. Secreted alkaline phosphatase (SEAP) activity in the supernatants was determined by a colorimetric assay, using either the SEAPorter Assay Kit (Imgenex, San Diego, Calif.), with absorbance read at 405 nm, or QuantiBlue (Invivogen), with absorbance read at 630 nm. In some experiments, graded concentrations of LPS-RS (Rhodococcus sphaeroides, Invivogen) were used to test TLR4-specific binding of the hit compound.

Test [1] has as its system human PBMC. Put plainly: IL-8 release in human PBMC (ELISA). Here is the method:
In vitro activities in human peripheral blood mononuclear cells (PBMC). Human PBMC were isolated from buffy coats obtained from the San Diego Blood Bank (San Diego, Calif.) as described previously.^5,6 PBMC (1×10^6/mL) were incubated with various compounds in complete RPMI (Omega Scientific) for 18 h at 37° C., 5% CO2 and culture supernatants were collected. The levels of IL-8 in the supernatants were determined by ELISA (BD Biosciences).
(In general: An ELISA detects its analyte on a solid surface through an enzyme-linked reagent.)

Test [2] has as its system human TLRs (TLR2, TLR3, TLR4/MD-2/CD14, TLR5, TLR7, TLR8 or TLR9). Put plainly: Human TLR-transfected HEK293 NF-κB SEAP reporter cell panel. The following applies: 10 μM, 20-24 h. Here is the method:
To identify the target receptor, we used HEK293 cells stably transfected with the following human TLRs (TLR2, TLR3, TLR4/MD-2/CD14, TLR5, TLR7, TLR8 or TLR9) along with an NF-κB activation reporter producing Secreted Alkaline Phosphatase (SEAP, FIG. 1A). To further confirm that TLR4 was indeed the receptor, compound 1a was assayed for IL-6 production in mBMDCs from wild type and TLR4 deficient mice (FIG. 1B). […] TLR4 signals through two distinct pathways, leading respectively to NF-κB dependent cytokines and type I interferon (IFN) production. Several naturally occurring TLR4 ligands and MPLA have been reported to require CD14 to activate the IFN regulatory pathway. The hTLR4 reporter cell line (FIG. 1A) also overexpresses hMD-2 and hCD14, which are TLR4 accessory proteins.
as §1, with “The culture supernatants were harvested after a 20-24 h incubation period.” left out, “In some experiments, graded concentrations of LPS-RS (Rhodococcus sphaeroides, Invivogen) were used to test TLR4-specific binding of the hit compound.” left out

Another test has as its system mBMDC. The test can be described thus: IL-6 induction in mouse bone marrow derived dendritic cells (wild type or gene deficient). From the text:
Animals. Seven to 9 week-old C57BL/6 (wild type, WT) and Cd14^−/− (C57BL/6 background) mice were purchased from the Jackson Laboratories (Bar Harbor, Mass.). Tlr4^−/− mice (C57BL/6 background) were a gift from Dr. Shizuo Akira (Osaka University, Japan) and were backcrossed for 10 generations onto the C57BL/6 background at University of California, San Diego (UCSD). MD-2^−/− mice (C57BL/6 background) were originally generated by Dr. K. Miyake (University of Tokyo, Tokyo, Japan) and were kindly provided by Dr. L. Hajjar (University of Washington, Seattle, Wash.). Human TLR4 transgenic mice on murine TLR4/MD-2 null C57BL/6 background were kindly provided by Dr. L. Hajjar.^3 All animal experiments were approved by the UCSD Institutional Animal Care and Use Committee.
In vitro cytokine induction in bone marrow derived dendritic cells (BMDC) and macrophages (BMDM). BMDC or BMDM were prepared from C57BL/6 mice as described.^4 BMDC or BMDM (10^5 cells per well) were plated in 96-well plates in 200 μl complete RPMI1640 (Omega Scientific, Tarzana, Calif.) supplemented with 10% fetal calf serum (Sigma Aldrich), 100 U/mL penicillin and 100 μg/mL streptomycin (Life Technologies). The cells were incubated with graded concentrations of the compounds for 18 h at 37° C., 5% CO2. After 18 h incubation, the cell culture supernatants were collected. LPS (100 ng/mL, L2654, E coli; B6, Sigma) or MPLA (1 μg/mL synthetic MPLA, Invivogen) were used as positive controls. The levels of IL-6 or IP-10 in the culture supernatants were determined by ELISA (BD Biosciences, La Jolla, Calif.).^5 Finally, all levels of cytokine release were normalized to those of LPSstimulation within each experiment, set at 100.

Test [3] relates to human PBMC. The test can be described thus: CD80 and CD83 expression in CD11c+ HLA-DR+ human PBMC (flow cytometry). Conditions: 5 μM overnight; CD11c+HLA-DR+ gated population. On the procedure:
FIG. 2. Compound 1a induces type I IFN and expression of co-stimulatory molecules. A) Human PBMC were incubated with compound 1a (10 μM), LPS (10 ng/mL), or vehicle overnight. The release of type I IFN in the culture supernatants was measured by luciferase release in L929-ISRE reporter cells. Data shown are mean±SEM of triplicates. B) Compound 1a- or vehicle-treated wild type or Tlr4^−/−mBMDC were stained for CD11c and either CD40, CD80, or CD86. The expression levels of CD40, CD80, or CD86 were evaluated in the gated CD11c^+ population. DMSO 0.5% served as the vehicle control. C) Human PBMC were incubated with compound 1a (5 μM) overnight. CD80 and CD83 expression in gated CD11c^+ HLA-DR^+ population was analyzed by flow cytometer. Data are representative of two independent experiments showing similar results.
To evaluate whether treatment of DCs with this compound can induce maturation in these cells, mBMDC prepared from wild type or TLR4 deficient mice were exposed to compound 1a and then assayed for expression of co-stimulatory molecules CD40, CD80, and CD86 in the CD11c+ population (FIG. 2B). […] Induction of co-stimulatory molecules by compound 1a was also confirmed in human PBMC.
For orientation: A flow cytometer gives signals particle by particle.

T1 sequence (O00206 24-839): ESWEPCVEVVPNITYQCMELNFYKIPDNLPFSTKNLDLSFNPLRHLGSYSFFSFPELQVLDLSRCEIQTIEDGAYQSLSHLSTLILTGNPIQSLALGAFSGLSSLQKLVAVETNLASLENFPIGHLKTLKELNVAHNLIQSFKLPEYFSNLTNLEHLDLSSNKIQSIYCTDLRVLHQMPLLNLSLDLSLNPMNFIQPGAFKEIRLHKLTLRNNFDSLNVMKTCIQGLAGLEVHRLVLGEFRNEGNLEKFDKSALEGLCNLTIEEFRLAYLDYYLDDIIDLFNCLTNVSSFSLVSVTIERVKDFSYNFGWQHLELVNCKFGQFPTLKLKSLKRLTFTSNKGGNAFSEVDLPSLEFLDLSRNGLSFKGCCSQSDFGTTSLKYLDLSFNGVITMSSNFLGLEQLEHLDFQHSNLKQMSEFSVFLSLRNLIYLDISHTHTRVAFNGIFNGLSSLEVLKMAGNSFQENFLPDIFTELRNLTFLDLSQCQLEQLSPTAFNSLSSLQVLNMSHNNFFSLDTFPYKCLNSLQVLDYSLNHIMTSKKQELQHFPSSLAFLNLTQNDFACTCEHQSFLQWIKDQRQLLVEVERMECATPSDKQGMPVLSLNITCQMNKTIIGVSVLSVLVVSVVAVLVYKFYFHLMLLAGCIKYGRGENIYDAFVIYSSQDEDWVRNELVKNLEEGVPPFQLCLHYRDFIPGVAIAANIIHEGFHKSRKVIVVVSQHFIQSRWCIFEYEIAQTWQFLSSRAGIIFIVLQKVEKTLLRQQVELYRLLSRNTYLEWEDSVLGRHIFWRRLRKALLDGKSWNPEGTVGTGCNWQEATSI
T1 sequence (Q9Y6Y9 19-160): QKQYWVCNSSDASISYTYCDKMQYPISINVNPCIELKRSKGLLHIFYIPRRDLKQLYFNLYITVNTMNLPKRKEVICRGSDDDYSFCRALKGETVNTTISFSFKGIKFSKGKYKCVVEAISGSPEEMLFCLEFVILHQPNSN

As to `CCOC(=O)c1nc(Nc2cc(Oc3ccccc3)cc([N+](=O)[O-])c2)c2ccccc2n1` [Compound 1a, Ethyl 4-((3-nitro-5-phenoxyphenyl)amino)quinazoline-2-carboxylate], the “hTLR4 0.5 μM” value at TLR4/MD-2/CD14 (0.5 μM, Quantiblue OD630 of hTLR4 HEK Blue cells, normalized to LPS positive control=100) was 49.1. For the same molecule, the “NF-κB activation induced by compound in presence of competitive antagonist LPS-RS” value on TLR4/MD-2/CD14 (10 μM compound, LPS-RS 12, 111, 1000 ng/mL, dose dependent) is given as “inhibited”. This molecule had an IL-8 release (% of LPS control) at 0.5 µM in the test with human PBMC [1] (Homo sapiens, PBMC, 18 h, 0.5 μM, IL-8 release, normalized to LPS positive control=100) of 22.2%. Also, the “Concentration inducing detectable levels of IL-8” value in the test with human PBMC [1] (hPBMC, graded concentrations) is listed as “below 1 μM”. The “IL-8 release in presence of polymyxin B” value in the test on human PBMC [1] (polymyxin B 10 μg/mL, overnight) was “not reduced”. The “NF-κB activation (SEAP) across TLR transfected cells” value in test [2] was “only those expressing TLR4/MD-2/CD14 responded”. Further, in the test on mBMDC (10 μM, mBMDC genetically deficient for CD14 or MD-2), the “Dependence of IL-6 production on CD14 and MD-2” value was “not to be dependent on CD14, but dependent on MD-2”. The “IL-6 secretion induced in mBMDC on genetic disruption of TLR4” value in the test on mBMDC (10 μM, wild type vs TLR4 deficient mice) is “completely abrogated”. For the same molecule, the “Concentration inducing detectable levels of IL-6” value in the test on mBMDC (mBMDC, graded concentrations, compared with IL-8 in hPBMC) is given as “higher concentrations were required”. The “Expression of CD80 and CD83” value in the test on human PBMC [3] is “increased expression of CD80 and CD83”.
